Test results: publication PMC4941420, “A Rational Approach for the Identification of Non-Hydroxamate HDAC6-Selective Inhibitors” (Scientific Reports, 2016)

Key:
Cytotoxicity XTT, HeLa = type: cell-based, human; conditions: human, HeLa cells, mean ± SD of 3 independent experiments in triplicate, read-out: cytotoxic IC50 HeLa
Description: (§1) HeLa and HEK 293 cells (ATCC CRL-1573) were cultured as described above and seeded into 96-well plates at 400 cells/well. Test and standard compounds were added to plate wells in triplicate (0.05% DMSO in culture medium) in a range of six concentrations. Following 72 h of incubation, […] of an activated XTT solution was added to the cells (1 mg/mL). The absorbance was measured at 450 nm after 2 h incubation at 37 °C. The growth of the compound-treated cells was compared with the growth of vehicle-treated control cells. IC50 values were calculated with GraphPad Prism 6.0.

HDAC2 = molecular target: T1, HDAC2 (Homo sapiens, UniProt Q92769); test: In vitro enzymatic assay HDAC2 (Fluor de Lys); type: biochemical; conditions: average of at least 2 independent experiments in duplicates ± SEM
T1 construct: purchased Sigma Aldrich or Reaction Biology Corporation

[1] = Solubility remarks during testing; type: physicochemical; conditions: concentrations higher than 500 μM cannot be tested
[2] = system: class I HDACs (HeLa nuclear extracts); test: HDAC activity of HeLa nuclear extracts (Fluor de Lys); type: biochemical, human; conditions: 100 μM, average of at least 3 independent experiments in duplicates (Table 1)
HDAC6 = molecular target: T2, HDAC6 (Homo sapiens, UniProt Q9UBN7); test: In vitro enzymatic assay HDAC6 (Fluor de Lys); type: biochemical
T2 construct: purchased Sigma Aldrich or Reaction Biology Corporation
T2 sequence (Q9UBN7 1-1215): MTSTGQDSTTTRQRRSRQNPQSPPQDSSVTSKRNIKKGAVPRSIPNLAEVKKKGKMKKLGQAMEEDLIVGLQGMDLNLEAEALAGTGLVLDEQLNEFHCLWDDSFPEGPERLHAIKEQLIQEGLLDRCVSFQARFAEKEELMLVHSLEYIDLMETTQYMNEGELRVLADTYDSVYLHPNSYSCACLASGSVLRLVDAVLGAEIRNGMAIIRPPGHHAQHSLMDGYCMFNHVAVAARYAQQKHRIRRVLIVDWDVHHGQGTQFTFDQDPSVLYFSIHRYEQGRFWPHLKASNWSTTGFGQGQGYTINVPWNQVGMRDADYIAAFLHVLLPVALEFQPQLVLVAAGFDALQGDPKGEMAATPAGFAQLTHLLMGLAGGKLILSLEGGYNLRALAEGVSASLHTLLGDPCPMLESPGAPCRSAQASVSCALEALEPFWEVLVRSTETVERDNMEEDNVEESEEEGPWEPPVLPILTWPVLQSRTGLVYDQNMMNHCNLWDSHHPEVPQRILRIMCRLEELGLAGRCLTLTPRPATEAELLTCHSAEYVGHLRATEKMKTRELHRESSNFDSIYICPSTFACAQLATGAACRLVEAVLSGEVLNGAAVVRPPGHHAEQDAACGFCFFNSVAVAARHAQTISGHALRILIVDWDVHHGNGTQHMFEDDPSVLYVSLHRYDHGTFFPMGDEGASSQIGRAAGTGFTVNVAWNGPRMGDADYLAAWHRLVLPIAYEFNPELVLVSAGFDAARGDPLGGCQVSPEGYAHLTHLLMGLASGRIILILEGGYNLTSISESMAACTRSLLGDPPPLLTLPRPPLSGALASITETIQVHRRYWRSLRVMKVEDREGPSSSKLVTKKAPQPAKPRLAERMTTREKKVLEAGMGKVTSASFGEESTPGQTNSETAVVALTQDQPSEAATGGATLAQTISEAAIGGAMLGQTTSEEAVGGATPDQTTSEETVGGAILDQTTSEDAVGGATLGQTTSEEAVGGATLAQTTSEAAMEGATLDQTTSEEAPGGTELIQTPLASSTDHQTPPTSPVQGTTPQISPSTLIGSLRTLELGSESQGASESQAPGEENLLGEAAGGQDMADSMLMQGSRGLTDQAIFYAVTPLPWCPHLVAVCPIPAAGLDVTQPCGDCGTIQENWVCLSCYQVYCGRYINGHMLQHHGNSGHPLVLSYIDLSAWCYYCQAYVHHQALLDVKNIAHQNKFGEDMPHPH

[3] = Cytotoxicity XTT, HEK 293; type: cell-based; conditions: human, HEK 293 cells (ATCC CRL-1573), mean ± SD of 3 independent experiments in triplicate, read-out: cytotoxic IC50 HEK 293
Description: as §1

[4] = system: α-tubulin acetylation in HeLa cells; test: Acetyl-α-tubulin sandwich ELISA in HeLa cells; type: cell-based, human; conditions: 48 h
Description: The acetyl-α-tubulin sandwich ELISA Kit (Pathscan® #7204, Cell Signalling) was used to determine tubulin acetylation levels, and Western blotting was used to evaluate histone H4 acetylation, both methods applied to lysates of treated and non-treated HeLa cells (ATCC CCL-2). Cells were cultured in DMEM medium, 4.5 g/L glucose, L-glutamine (Invitrogen), supplemented with 10% heat-inactivated fetal bovine serum (FBS, Biowest), 100 units/mL penicillin, and 100 μg/mL streptomycin, and 1% non-essential amino acids (Invitrogen) at 37 °C with 5% CO2. Prior to ELISA experiments, cells were seeded into 6-well plates at 150,000 cells/well and transfected with the HDAC6-GFP construct (pEGFP.N1-HDAC6, Addgene)[58], using the Lipofectamine 2000 reagent (Invitrogen). Cells were then treated with test compounds, standards or vehicle (0.5% DMSO in culture medium) for 48 h. After the incubation time, cells were washed with cold DPBS (Invitrogen) and lysates were obtained by recovering cells in cold lysis buffer provided in the ELISA kit, supplemented with a protease inhibitor tablet (SigmaFast, Sigma Aldrich). Briefly, cells were harvested in DPBS and centrifuged. The cell pellet was suspended in 100 μL lysis buffer, vortexed, and kept on melting ice for 30 min. Lysates were then obtained by recovering the supernatant after a centrifugation step of 10 min at 11,000 g, 4 °C. Protein concentration was determined by fluorimetry using the Qubit protein assay kit (Invitrogen). Cell lysates were tested at 1 mg/mL following the instructions provided by the ELISA kit manufacturer. For the Western blotting, cells were seeded into 100 mm Petri dishes and treated for 6 h. After the incubation time, cells were washed with cold DPBS (Invitrogen) supplemented with a protease inhibitor tablet (Sigma Fast, Sigma Aldrich), and lysates were obtained by recovering cells in 100 μL cold lysis buffer (10 mM Hepes pH 7.9, 1.5 mM MgCl2, 10 mM KCl, 0.5 mM DTT, 1.5 mM PMSF, 0.2M HCl) the same way as described above. […]

T1 sequence (Q92769 whole entry): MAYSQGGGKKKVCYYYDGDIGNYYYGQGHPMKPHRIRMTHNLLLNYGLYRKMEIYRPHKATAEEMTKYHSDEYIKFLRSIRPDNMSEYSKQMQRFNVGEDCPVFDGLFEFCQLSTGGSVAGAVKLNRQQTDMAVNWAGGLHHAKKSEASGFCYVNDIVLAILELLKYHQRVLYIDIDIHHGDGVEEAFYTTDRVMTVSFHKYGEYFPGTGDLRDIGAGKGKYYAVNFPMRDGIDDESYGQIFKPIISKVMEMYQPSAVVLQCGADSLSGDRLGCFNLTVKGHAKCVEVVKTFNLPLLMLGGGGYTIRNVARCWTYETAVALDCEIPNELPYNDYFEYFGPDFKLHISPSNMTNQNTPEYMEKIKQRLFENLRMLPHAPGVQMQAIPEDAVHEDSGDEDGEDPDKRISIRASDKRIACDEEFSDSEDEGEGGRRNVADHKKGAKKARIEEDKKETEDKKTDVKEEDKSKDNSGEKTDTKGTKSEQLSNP

**Q.** Which IC50 at 72 h (Cytotoxicity XTT, HeLa) does the source give for `NNC(=O)c1ccc(COc2ccccc2Cl)cc1` [AK-14] here?
**A.** Its IC50 at 72 h is 299 ± 56.1 µM.

**Q.** And the IC50 (HDAC2)?
**A.** Its IC50 is over 1000 µM.

**Q.** And the “solubility remark in HeLa cell assay” value [1]?
**A.** The value was “solubility issues”.

**Q.** And the “HeLa % of inhibition at 100 μM” value [2]?
**A.** The value was 2.7 ± 1.3%.

**Q.** What about the IC50 (HDAC6; average of at least 2 independent experiments in duplicates ± SEM) of the same compound?
**A.** Its IC50 is 12.8 ± 5.4 µM.

**Q.** And the inhibition at 100 µM (HDAC6; read-out: HDAC6 % of inhibition at 100 µM)?
**A.** Its inhibition at 100 µM is 70.7 ± 6%.

**Q.** What about the IC50 at 72 h [3] of the same compound?
**A.** Its IC50 at 72 h is 34.5 ± 4.8 µM.

**Q.** What about the acetylated tubulin levels ([4]; 250 μM) of the same compound?
**A.** The acetylated tubulin levels was “less remarkable effect”.

**Q.** What about the acetylated tubulin levels ([4]; 500 μM) of the same compound?
**A.** Its acetylated tubulin levels is “significantly increase”.
